Laboratory results: ChEMBL document CHEMBL4382217 (Bioorg Med Chem, 2018)

Tests used:
[1] = Antiproliferative activity against human A431 cells harboring WT EGFR after 72 hrs by MTS assay; assay type: cell-based, A-431; details: human, A431 cells harboring WT EGFR
[2] = Selectivity index, ratio of GI50 for human A431 cells harboring WT EGFR to GI50 for human NCI-H1975 cells harboring EGFR T790M/L858R double mutant
[3] = tested on: NCI-H1975; assay: Antiproliferative activity against human NCI-H1975 cells harboring EGFR T790M/L858R double mutant after 72 hrs by MTS assay; assay type: functional, cell-based
[4] = tested on: PC-9; assay: Antiproliferative activity against human PC9 cells harboring EGFR mutant after 72 hrs by MTS assay; assay type: functional, cell-based; details: PC-9, 72 h
[5] = tested on: Calu-3; assay: Antiproliferative activity against human Calu3 cells harboring WT EGFR after 72 hrs by MTS assay; assay type: cell-based; details: Calu-3, 72 h
[6] = Half life in po dosed mouse; assay type: ADME, organism-based; details: in vivo
[7] = tested on: HCC827; assay: Antiproliferative activity against human HCC827 cells harboring EGFR mutant after 72 hrs by MTS assay; assay type: functional, cell-based; details: HCC827, 72 h
[8] = Toxicity in castrated nude mouse xenografted with human PC9 cells assessed as body weight loss at 10 mg/kg, po daily for 14 consecutive days relative to control; assay type: organism-based; details: in vivo
[9] = tested on: PC-9; assay: Antitumor activity against human PC9 cells harboring EGFR exon-19 del mutant xenografted in castrated nude mouse assessed as tumor growth inhibition at 10 mg/kg, po daily for 14 consecutive days measured on day 15 relative to control; assay type: functional
[10] = Toxicity in castrated nude mouse xenografted with human HCC827 cells assessed as body weight loss at 10 mg/kg, po daily for 14 consecutive days relative to control; assay type: organism-based; details: in vivo
[11] = tested on: NCI-H1975; assay: Antitumor activity against human NCI-H1975 cells harboring EGFR T790M/L858R double mutant xenografted in castrated nude mouse assessed as tumor growth inhibition at 20 mg/kg, po daily for 14 consecutive days measured on day 15 relative to control; assay type: functional
[12] = tested on: Calu-6; assay: Antiproliferative activity against human Calu6 cells harboring WT EGFR after 72 hrs by MTS assay; assay type: cell-based; details: Calu-6, 72 h
[13] = Toxicity in castrated nude mouse xenografted with human NCI-H1975 cells assessed as body weight loss at 20 mg/kg, po daily for 14 consecutive days relative to control; assay type: organism-based; details: in vivo
[14] = tested on: HCC827; assay: Antitumor activity against human HCC827 cells harboring EGFR exon-19 del mutant xenografted in castrated nude mouse assessed as tumor growth inhibition at 10 mg/kg, po daily for 14 consecutive days measured on day 15 relative to control; assay type: functional

| GI50 ([3]; Homo sapiens, NCI-H1975, 72 h) [nM] | Compound | GI50 at 72 h [1] [nM] | RatioGI50 [2] | IC50 [4] [nM] | IC50 [5] [nM] | half-life [6] [h] | IC50 [7] [nM] | Activity [8] [%] | TGI [9] [%] | Activity [10] [%] | TGI [11] [%] | IC50 [12] [nM] | Activity [13] | GI50 [3] [nM] | IC50 ([3]; Homo sapiens, NCI-H1975, 72 h) [nM] | TGI [14] [%] |
| --- | --- | --- | --- | --- | --- | --- | --- | --- | --- | --- | --- | --- | --- | --- | --- | --- |
| 285 | C=CC(=O)Nc1cc(Nc2nccc(-c3noc4ccccc34)n2)c(OC(F)F)cc1N1CCC[C@H]1CN(C)C | 1000 | 3.5 |  |  |  |  |  |  |  |  |  |  |  |  |  |
| 175 | C=CC(=O)Nc1cc(Nc2nccc(-c3cn(C)c4cccnc34)n2)c(OC)cc1N1CCN(C)CC1 | 1560 | 8.9 |  |  |  |  |  |  |  |  |  |  |  |  |  |
|  | C=CC(=O)Nc1cc(Nc2nccc(-c3cn(C)c4ccccc34)n2)c(OC)cc1N(C)CCN(C)C [OSIMERTINIB] |  |  | 160 | […] | […] | […] | 8 | […] | 8 | […] | 5860 | <= 15% | […] | […] | 121 |
